Measurements reported in patent US20060235062A1, “Novel heterocyclic analogs of diphenylethylene compounds” (THERACOS, INC., priority 2002, published 2006).

Legend:
[1] = test system: 3T3-L1 adipocytes; assay: Glucose uptake in differentiated 3T3-L1 adipocytes; assay type: cell-based; details: for % Glucose uptake 0.1 μm / % Glucose uptake 1.0 μm: average of quadruplicate ± SD
Procedure: Referring to FIG. 8 glucose uptake in 3T3-L1 differentiated adipocytes was measured after treatment with the test compound. The assay was conducted according to the method of Tafuri, Endocrinology, 137, 4706-4712 (1996). The serum-starved cells were treated with the test compound for 48 hours at different concentrations, then washed and incubated in glucose-free media for 30 minutes at 37° C. Then ^14C-deoxyglucose was added and uptake was monitored for 30 minutes under incubation. After washing, the cells were lysed (0.1% SIDS) and counted.
Basal glucose uptake was measured in differentiated 3T3-L1 adipocytes following the protocol of Tafuri (6) with modifications. Briefly, 3T3-L1 fibroblasts, obtained from ATCC (Manassas, Va.), were differentiated to adipocytes by treating cells with porcine insulin (1 μg/ml for 4 days), dexamethasone (0.25 μM for first 2 days) and isobutyl methyl xanthine (IBMX, 0.5 mM for first 2 days) (all from Sigma Chemicals, St Louis, Mo.) following the protocol of Frost and Lane (7). Differentiated adipocytes were incubated in Dulbecco's Modified Eagle Medium (DMEM) containing 10% fetal bovine serum (GibcoBRL, Gaithersburg, Md.) with various concentrations of Compound 11 or vehicle (0.1% DMSO) for 48 h in 24-well plates, in triplicate. Cells were washed with phosphate buffered saline (PBS, 150 mM NaCl, 1 mM KH2PO4, 3 mM Na2HPO4; pH 7.4) and incubated in glucose-free DMEM for 2 h at 37° C. The cells were washed 3 times with Krebs Ringer Phosphate Buffer (KRP). Glucose uptake was initiated by addition of 0.25 μCi 2-^14C(U)-deoxy-D-glucose (300 μCi/mmol, American Radiolabeled Chemicals Inc., St Louis, Mo.) per well and the cells incubated for 10 min at room temperature in the presence of 0.1 mmol cold 2-deoxy-D-glucose. Finally, the cells were washed three times with ice-cold PBS containing 10 mM cold glucose, lysed with 0.5% SDS, and counted in a scintillation counter (Beckman LS6500).

[2] = target: T1, Human PPAR-γ2 (Homo sapiens, UniProt P37231); assay: PPAR-gamma mediated transactivation of PPRE-luciferase reporter; assay type: cell-based; details: for EC50: cells transfected with human PPAR-gamma2, 24 hours, non-linear regression, read-out: EC50, induction of PPAR-γ mediated luciferase activity
T1 construct: inserting the PPARγ2 cDNA coding region into pcDNA3.1+ vector; expressed in transfected cells; host or cells: HEK293 cells (ATCC)
T1 sequence (P37231 1-505): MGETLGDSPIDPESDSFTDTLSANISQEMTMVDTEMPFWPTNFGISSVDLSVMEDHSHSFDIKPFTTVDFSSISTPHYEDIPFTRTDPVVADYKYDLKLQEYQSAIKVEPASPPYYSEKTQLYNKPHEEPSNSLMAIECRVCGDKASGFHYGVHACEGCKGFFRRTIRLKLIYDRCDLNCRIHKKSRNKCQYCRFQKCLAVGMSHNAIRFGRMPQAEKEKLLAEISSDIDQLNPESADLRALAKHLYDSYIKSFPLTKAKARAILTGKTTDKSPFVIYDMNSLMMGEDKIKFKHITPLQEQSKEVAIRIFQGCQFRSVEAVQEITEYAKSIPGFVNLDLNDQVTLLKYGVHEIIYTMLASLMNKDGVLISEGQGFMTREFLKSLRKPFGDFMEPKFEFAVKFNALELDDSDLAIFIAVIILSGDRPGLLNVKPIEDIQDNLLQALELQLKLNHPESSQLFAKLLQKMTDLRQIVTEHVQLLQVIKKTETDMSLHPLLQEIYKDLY
Procedure: Human PPAR-γ2 expression vector was constructed by inserting PPAR-γ2 encoding region into pcDNA3.1+ vector (Invitrogen, Carlsbad, Calif.). Luciferase reporter vector was constructed by ligating PPRE response element adjacent to the upstream of Firefly luciferase coding region. Control vector, pRL-SV40 expressing Renilla luciferase was purchased from Promega (Madison, Wis.).
About 2.7×10^4 293 cells (ATCC, Manassas, Va.) were plated into a 35 mm culture well and maintained in Eagle's Minimal Essential Medium (ATCC, Manassas, Va.) supplemented with 10% heat inactivated horse serum (ATCC, Manassas, Va.) for 24 hours. Expression, reporter and control vectors (2.5 ng control and 100 ng others per culture well) were transfected by LI[…]™ Reagent (Invitrogen, Carlsbad, Calif.). Transfection reagent and DNA were prepared according to manufacture's recommendations and incubated with cells for 3 hours followed by adding equal volume EMEM supplemented with 20% horse serum. Twenty-four hours after transfection, cells were treated with vehicle or compounds at indicated final concentration for 24 hours. Final concentration of vehicle was 0.001% DMSO (Sigma, ST Louis, Mo.) in medium. Vehicle and compound treatment were all conducted in triplicate. Each culture well was then assayed for a response characterized by increased Firefly luciferase activity normalized with Renilla luciferase activity.
Assays for Firefly luciferase activity and Renilla luciferase activity followed the standard protocol of Dual-luciferase Reporter® Assay System (Promega, Madison, Wis.). Briefly, 400 μl Passive Lysis Buffer was added into each culture well and all wells were placed on a shaker for 15 minutes. Five μl cell lysate of each well was added to a reaction tube. Luciferase reagent II and Stop & Glo® were injected into the reaction tube sequentially by Sirius Luminometer (Berthold Detection Systems, Pforzheim, Germany). Final reporter activity was calculated as the ratio of Firefly luciferase activity over by Renilla luciferase activity.
Human PPARγ2 expression vector was constructed by inserting the PPARγ2 cDNA coding region into pcDNA3.1+ vector (Invitrogen, Carlsbad, Calif.). The PPRE-luciferase reporter gene was the kind gift of Dr. Kenneth Feingold. The control vector, pRL-SV40 containing the Renilla luciferase cDNA was purchased from Promega (Madison, Wis.). About 2.7×10^4 HEK293 human embryonal kidney cells (ATCC) were plated into a 35-mm tissue culture dish and maintained in Eagle Modified Essential Medium (EMEM, ATCC) containing 10% heat-inactivated horse serum for 24 h. Expression, reporter (100 ng/dish) and control (2.5 ng/dish) vectors were transfected using LI[…]™ Reagent (GibcoBRL) according to manufacturer's recommendation. At 24 h after transfection, cells were treated with vehicle (0.001% DMSO in medium) or compounds at the indicated concentration and incubated for 24 h. Each treatment was conducted in triplicate. Each culture dish was assayed for firefly luciferase activity normalized by Renilla luciferase activity to account for differences in transfection efficiency. Luciferase activity was measured using the Dual-luciferase Reporter® Assay System (Promega) and a Sirius luminometer (Berthold Detection System, Pforzheim, Germany).

[3] = test system: NF-kB p65; assay: NF-kB p65 activation in LPS-stimulated RAW cells (ELISA); assay type: cell-based; details: 10 μM, 1 μg/ml LPS 15 min, FIG. 15
[4] = test system: AIA rats; assay: Cancellous bone loss in adjuvant induced arthritic (AIA) rats, MicroCT of right proximal tibia; assay type: in vivo, male Lewis rats

Compound: COC(=O)C(=Cc1cc(OC)cc(OC)c1)c1ccc(Oc2ccc(C=C3SC(=O)NC3=O)cc2)cc1 [Compound 10, 3-(3,5-Dimethoxyphenyl)-2-{4-[4-(2,4-dioxothiazolidin-5-ylidenemethyl)-phenoxy]-phenyl}-acrylic acid methyl ester]
- glucose uptake activity in words ([1]; 0.1 μM): retained activity, but less than that of rosiglitazone
- glucose uptake activity in words ([1]; 1 μM): comparable to rosiglitazone
- % Glucose uptake 0.1 μm [1]: 142.6 ± 7.4 % basal of the non treated cells
- % Glucose uptake 1.0 μm [1]: 209.3 ± 22.6 % basal of the non treated cells
- EC50 [2]: 1.14 µM
- PPAR-gamma agonist potency in words ([2]; in vitro transactivation assay): reasonable potency

Compound: COc1cc(C=C(C(=O)O)c2ccc(Oc3ccc(CC4SC(=O)NC4=O)cc3)cc2)cc(OC)c1 (stereo not shown) [Compound 14]
- glucose uptake activity in words ([1]; 1 μM): comparable to rosiglitazone
- % Glucose uptake 0.1 μm [1]: 108.6 ± 19.9 % basal of the non treated cells
- % Glucose uptake 1.0 μm [1]: 199.5 ± 11.6 % basal of the non treated cells
- EC50 [2]: 0.69 ± 0.038 µM
- PPAR-gamma agonist potency in words ([2]; in vitro transactivation assay): reasonable potency

Compound: CCCCC/C=C/C=C1/C(=O)C=C[C@@H]1C/C=C\CCCC(=O)O [Compound 15dPGJ2, 15-deoxy-Δ^12,14-prostaglandin J2]
- inhibition of the activation of NF-kB (p65) [3]: inhibited

Compound: COC(=O)C(Cc1cc(OC)cc(OC)c1)c1ccc(Oc2ccc(C=C3SC(=O)NC3=O)cc2)cc1 (stereo not shown) [Compound 17, 3-(3,5-Dimethoxyphenyl)-2-{4-[4-(2,4-dioxothiazolidin-5-ylidenemethyl)-phenoxy]-phenyl}-propionic acid methyl ester]
- glucose uptake activity in words ([1]; 0.1 μM): devoid of activity
- glucose uptake activity in words ([1]; 1 μM): modest activity
- % Glucose uptake 0.1 μm [1]: 101.9 ± 6.8 % basal of the non treated cells
- % Glucose uptake 1.0 μm [1]: 130.0 ± 27.0 % basal of the non treated cells
- EC50 [2]: 23.9 µM
- PPAR-gamma agonist potency in words ([2]; in vitro transactivation assay): essentially inactive

Compound: COC(=O)C(Cc1cc(OC)cc(OC)c1)c1ccc(Oc2ccc(CC3SC(=O)NC3=O)cc2)cc1 (stereo not shown) [Compound 18, 3-(3,5-Dimethoxyphenyl)-2-{4-[4-(2,4-dioxothiazolidin-5-ylmethyl)-phenoxy]-phenyl}-propionic acid methyl ester]
- glucose uptake activity in words ([1]; 0.1 μM): devoid of activity
- glucose uptake activity in words ([1]; 1 μM): modest activity
- % Glucose uptake 0.1 μm [1]: 104.4 ± 5.7 % basal of the non treated cells
- % Glucose uptake 1.0 μm [1]: 137.0 ± 10.1 % basal of the non treated cells
- EC50 [2]: 57.7 µM
- PPAR-gamma agonist potency in words ([2]; in vitro transactivation assay): essentially inactive

Compound: COC(=O)/C(=C\c1cc(OC)cc(OC)c1)c1ccc(Oc2ccc(CC3SC(=O)NC3=O)cc2)cc1 (stereo not shown) [Compound 23, Z-3-(3,5-Dimethoxyphenyl)-2-{4-[4-(2,4-dioxothiazolidin-5-ylmethyl)-phenoxy]-phenyl}-acrylic acid methyl ester]
- glucose uptake activity in words ([1]; 1 μM): essentially inactive
- % Glucose uptake 0.1 μm [1]: 89.5 ± 5.6 % basal of the non treated cells
- % Glucose uptake 1.0 μm [1]: 118.0 ± 3.6 % basal of the non treated cells
- EC50 [2]: 3.69 ± 1.45 µM
- PPAR-gamma transactivation potency relative to a comparator, in words ([2]; in vitro transactivation assay): less than one-tenth the potency of compound 11

Compound: Etanercept
- less cancellous bone lost ([4]; AIA rats, treated vs vehicle): ~50%
- C.Th ([4]; right proximal tibia): 198 ± 25 μm
- Conn. Dens ([4]; right proximal tibia): 31.9 ± 19.7 l/mm3
- SMI (0-3) ([4]; right proximal tibia): 2.8 ± 0.4
- Tb.N ([4]; right proximal tibia): 2.8 ± 0.5 l/mm
- BV/TV ([4]; right proximal tibia, compound 11 50 mg/kg oral, etanercept 1.67 mg/kg i.p., once daily): 12.9 ± 5.2%

Compound: Insulin: insulin, comparator in the 3T3-L1 glucose uptake test
- % Glucose uptake 0.1 μm [1]: 335.2 ± 21.7 % basal of the non treated cells
- % Glucose uptake 1.0 μm [1]: 345.6 ± 8.3 % basal of the non treated cells
